Reference: patent publication US5750547A, “Certain carbanate anti-cancer agents” (priority 1996, dated 1998)
Where two headings read alike, the source gives them in different places.

Legend:
[1] = test system: MDA-MB-231 cells; assay: In vitro cytotoxicity (MTT), MDA-MB-231 cells; type: cell-based, human
Excerpt: (§1) As suitable cell lines there may be mentioned: human adenocarcinoma cells (CRL-229, LoVo), human ovarian carcinoma cells (CRL-1572), human breast cancer cells (MDA-MB-231), normal mouse breast cells (HC-11), mouse leukaemia cells (CCL-46, P388D1), mouse leukaemia (CCL-219, L1210), CRL-1427, human promonocyte U937 and the like. Most of these cell lines are readily available from the American Type Culture Collection. Cells lines: 0-23, 0-23 clone 2.2, LR-73, LR-73 MDR-3, T47D and T47D (GST), having developed resistance to antineoplastic agents through different mechanisms of resistance were also tested in the same manner.
(§2) All cell lines are cultured by a standard procedure in RPMI-1640®mediumsupplemented with 10% fetal bovine serum and 100 ,pg/mL of penicillin and 100 μg/mL of streptomycin.
(§3) In order to evaluate the efficiency of the compounds of formula I, the following experiments are carried out. Cytotoxicity assays are conducted on LoVo, MDA-MB-231 and P388D1 cells. The choice of these cells has been motivated by the fact that they have been specifically identified as the cause of a large number of cancer in North America in the recent years.
(§4) Tumor cells are obtained from the American Type Culture Collection. The cells are suspended at a concentration of 2.5×10^4 cells/mL in a fresh culture media (RPMI-1640, supplemented with 10% fetal calf serum). The well plates (microtitration, 96 wells) are seeded with 100 μL of the cell suspension and incubated 24 hours at 37° C. in a humid atmosphere containing 5% CO2.100 μL of fresh culture media containing different concentrations of drugs to be tested (1 to 25 μM) are added in 8 wells of each plate, and the cells are further incubated for 3 additional days at 37° C. under the same conditions. Each experiment is conducted in triplicate. Cell survival is determined by MTT method, as taught in J. Immunol Methods, 1986, 89, 271 (Denizot et al.) and Int. J. Immunopharm, 1988. 10, 785 (Page et al). The method mainly consisted of a first removal of the culture media and addition to the plates of 20 μL of a MTT solution (5 mg/mL in PBS pH 7.4). The plates are incubated at 37° C. for 4 hours and then 200 μL of dimethylsuffoxide (DMSO) area added into the wells. The plates are agitated for 15 min at room temperature and the absorbance at 540 nm measured on Titertek MC Multiwell® spectrophotometer.
(§5) The method normally used by the American National Cancer Institute for the comparison of effectiveness between drugs is based upon ID50. The ID50 is the concentration at which half of tumor cell population is killed. A comparison of the antitumor agents of the present invention with chlorambucil, which is presently used commercially, is provided to illustrate the superiority of the former.

[2] = test system: primary brain tumors; conditions: low doses; cited from earlier work
[3] = cited from earlier work; for biological half-life: approximately
[4] = administered orally or intravenously; cited from earlier work
[5] = Acute toxicity assay, i.p. in mice (survival); type: in vivo, BDF1 (C57BL/6×DBA/2) mice
Description: Chlorambucil and compound 36 of the present invention were dissolved in DMSO. Each drug solution was mixed with hydrogenated soybean oil in a ratio 1:9 v/v. 100 μL of this mixture was administered i.p. to BDF1 (C57BL/6×DBA/2) mice. For each concentration of drug, varying from 9.25 to 75 mg/kg for chlorambucil or from 9.25 to 296 mg/kg for compound 36, 6 mice were treated. Survival weight and fitness were measured as criteria of toxicity.

[6] = test system: LoVo cells; assay: In vitro cytotoxicity (MTT), LoVo cells; type: cell-based; conditions: Homo sapiens, 72 h
Excerpt: as §1, §2, §3, §4, §5

[7] = test system: P388D1 cells; assay: In vitro cytotoxicity (MTT), P388D1 cells; type: cell-based; conditions: Mus musculus, P388D1, 72 h
Excerpt: as §1, §2, §3, §4, §5

[8] = test system: L1210 leukaemia cells; assay: Antineoplastic assay, L1210 leukaemia in BDF1 mice; type: in vivo; conditions: 10 mg/kg, i.p. daily day 1 to day 9, L1210 in BDF1 mice
Description: L1210 leukaemia cells suspended in RPM1-1640 were washed, centrifuged and re-suspended in phosphate buffer saline (PBS) at a concentration of 5×10^5 cells/mL. 200 μL of the suspension were injected i.p. to BDF1 mice. From day 1 to day 9, mice were treated daily according to the NCI procedure taught in Protocols for screening chemical agents and natural products against animal tumors and other biological systems (3rd edition). Cancer Chem. Rep. Part 3 3 (2): 1-103) with i.p. injections of 10 μL of drug solution in DMSO mixed with 90 μL of hydrogenated soybean oil. Chlorambucil was tested at 1, 5 and 10 mg/kg/day and compounds 36 and 4 at 1, 10 and 50 mg/kg/day. For each concentration, six mice were treated. Control groups were treated i.p. with 100 μL of hydrogenated soybean oil containing 10% (v/v) DMSO.
The antineoplastic activity of a drug on mice bearing cancer tumors is evaluated by a value known in the art as the median survival time (T/C %). This value of T/C % is obtained by dividing the median survival time of treated mice by that of untreated mice, and the quotient is multiplied by 100. When the value of T/C % is lower than 85, the drug is considered toxic. On the other hand, a survival time greater than 125 indicates a significant antineoplastic action of the drug on cancer tumors.

[9] = Table 2, 3 days incubation, MTT, read-out: ID50 (LoVo)
[10] = Table 2, 3 days incubation, MTT, read-out: ID50 (P388 D1)
[11] = Homo sapiens, MDA-MB-231, 72 h, Table 2, 3 days incubation, MTT, read-out: ID50 (MDA-MB-231)
[12] = Homo sapiens, MDA-MB-231, 72 h, Table 1, 3 days incubation, MTT, read-out: ID50 on tumor cells, MDA-MB-231
[13] = Table 1, 3 days incubation, MTT, read-out: ID50 on tumor cells, LoVo
[14] = Table 1, 3 days incubation, MTT, read-out: ID50 on tumor cells, P388D1

Row | Compound | IC50 [6, 9] [µM] | IC50 [7, 10] [µM] | IC50 [1, 11] [µM] | further results
1 | 5-[3-(2-chloroethyl)ureido] 4,6-dimethyl pyridine [VIII] | – | – | – | IC50 ([1]; Table 1, 3 days incubation, MTT, read-out: ID50 on tumor cells, MDA-MB-231): 50 µM
2 | O=NN(CCCl)C(=O)NCCCl [Carmustine] | – | – | – | activity in primary brain tumors [2]: active in primary brain tumors; biological half-life [3]: 1-1.5 h; percentage bound to plasma proteins [3]: over 90%; side effects [4]: nausea, vomiting, alopecia, lymphopenia, leucopenia and bone marrow depression
3 | O=C(O)CCCc1ccc(N(CCCl)CCCl)cc1 [Chlorambucil, reference compound] | – | – | – | Acute toxicity, survival ([5]; 9.25 mg/kg i.p.): 6/6; Acute toxicity, survival ([5]; 18.5 mg/kg i.p.): 6/6; Acute toxicity, survival ([5]; 37 mg/kg i.p.): 6/6; Acute toxicity, survival ([5]; 75 mg/kg i.p.): 0/6; IC50 ([6]; read-out: ID50 (LoVo)): 9 µM; biological half-life [3]: 1-1.5 h; percentage bound to plasma proteins [3]: over 90%; IC50 ([7]; read-out: ID50 (P388 D1)): 6.7 µM; median survival time (T/C %) [8]: 160%; side effects [4]: nausea, vomiting, alopecia, lymphopenia, leucopenia and bone marrow depression; IC50 ([1]; Homo sapiens, MDA-MB-231, 72 h, read-out: ID50 (MDA-MB-231)): 11 µM
4 | CCc1cccc(NC(=O)NCCCl)c1 [Compound 2] | 3.5 | 7 | 7.8 | –
5 | CCCc1ccc(NC(=O)NCCCl)cc1 [Compound 3] | 9.8 | 11 | 12 | –
6 | CC(C)c1ccc(NC(=O)NCCCl)cc1 [Compound 4] | 1.3 | 2.2 | 2 | median survival time (T/C %) [8]: 164%
7 | CCC(C)c1ccc(NC(=O)NCCCl)cc1 (stereo not shown) [Compound 5] | 1.6 | 2.4 | 2.2 | –
8 | CCCCCc1ccc(NC(=O)NCCCl)cc1 [Compound 6] | 5.5 | 7 | 6 | –
9 | CCCCCCc1ccc(NC(=O)NCCCl)cc1 [Compound 7] | 6.2 | 7.9 | 7.3 | –
10 | O=C(NCCCl)Nc1ccc(C2CCCCC2)cc1 [Compound 8] | 22 | 22 | 29 | –
11 | CCCCCCCc1ccc(NC(=O)NCCCl)cc1 [Compound 9] | 15 | 18 | 16 | –
12 | CCCCCCCCc1ccc(NC(=O)NCCCl)cc1 [Compound 10] | 29 | 32 | 33 | –
13 | CCOc1cccc(NC(=O)NCCCl)c1 [Compound 14] | 35 | 42 | 33 | –
14 | CCCCCOc1ccc(NC(=O)NCCCl)cc1 [Compound 15] | 16 | 28 | 22 | –
15 | CCCCCCOc1ccc(NC(=O)NCCCl)cc1 [Compound 16] | 16 | 17 | 22 | –
16 | O=C(NCCCl)Nc1ccc(CCO)cc1 [Compound 36] | – | – | – | Acute toxicity, survival ([5]; 9.25 mg/kg i.p.): 6/6; Acute toxicity, survival ([5]; 18.5 mg/kg i.p.): 6/6; Acute toxicity, survival ([5]; 37 mg/kg i.p.): 6/6; Acute toxicity, survival ([5]; 75 mg/kg i.p.): 6/6; Acute toxicity, survival ([5]; 111 mg/kg i.p.): 6/6; Acute toxicity, survival ([5]; 148 mg/kg i.p.): 6/6; Acute toxicity, survival ([5]; 222 mg/kg i.p.): 6/6; Acute toxicity, survival ([5]; 296 mg/kg i.p.): 6/6; median survival time (T/C %) [8]: 140%
17 | CCSc1ccc(NC(=O)NCCCl)cc1 [Compound 39] | – | – | 17 | –
18 | O=C(NCCCl)Oc1ccc([N+](=O)[O-])cc1 [Compound 40, 4-nitro phenyl N-(2chloroethyl) carbamate] | 7 | 8.2 | 10 | –
19 | Cc1cc(OC(=O)NCCCl)ccc1[N+](=O)[O-] [Compound 47] | 7.2 | 8 | 7.5 | –
20 | Cc1ccc(OC(=O)NCCCl)cc1C [Compound 50] | 30 | 40 | 40 | –
21 | O=C(NCCCl)Oc1cccc(Cl)c1 [Compound 63] | 7.5 | 5 | 8.5 | –
22 | O=C(NCCCl)Nc1ccc2[nH]ccc2c1 [IX, 5-[3-(2-chloroethyl)ureido]indole] | – | – | – | IC50 [1, 12]: 70 µM
23 | O=C(NCCCl)Nc1ccc2c(c1)Cc1ccccc1-2 [V, 2-[3-(2chloroethyl)ureido]fluorene] | – | – | – | IC50 [6, 13]: 5 µM; IC50 [7, 14]: 4 µM; IC50 [1, 12]: 4 µM
24 | O=C(NCCCl)Nc1ccc2c(c1)CCC2 [VI, 5-[3-(2-chloroethyl)ureido]indane] | – | – | – | IC50 [6, 13]: 5 µM; IC50 [7, 14]: 7 µM; IC50 [1, 12]: 7 µM
25 | O=C(NCCCl)Nc1ccc2cn[nH]c2c1 [VII, 6-[3-(2-chloroethyl)ureido]indazole] | – | – | – | IC50 [6, 13]: 31 µM; IC50 [7, 14]: 76 µM; IC50 [1, 12]: 29 µM
